IC50 data for 53 compounds are collected here from PubChem BioAssay AID1159564 (GlaxoSmithKline (GSK), 2015).

Activity calls are given as the source filed them. No rule for the calls is given here. Where only a bound is given, the exact number is not on record here.

The test system of this assay is L. donovani-infected THP-1 macrophages, intracellular amastigote imaging. Briefly: intracellular L. donovani amastigote inhibition, imaging, THP-1 host macrophages, host toxicity (AID 1159564).
Setting [1] is: measured here: THP-1 host cell toxicity.
Where [2] appears, read: measured here: amastigotes per macrophage.

Consider `Cc1cc(N(C)C)nc(Nc2ccccc2C)n1`, for which the IC50 was 32 µM. This compound yielded an IC50 under setting [1] of 40 µM. Moreover, the IC50 under setting [2] worked out at 16 µM.

On to `COc1ccc(CNc2cc(C3CC3)nc(-c3nccn3C)n2)cc1`, for which the IC50 was 0.79 µM. Also, the IC50 under setting [1] worked out at 13 µM. Under setting [2], this compound showed an IC50 of 0.79 µM.

As for `O=C(Nc1nc(-c2ccccn2)cs1)c1ccc(S(=O)(=O)N2CCCCC2)cc1`, the IC50 was 1.3 µM. In addition, the IC50 under setting [1] was found to be 13 µM. Moreover, under setting [2], the IC50 amounted to 1 µM.

As for `O=C1COC(c2ccccc2)(c2ccccc2)CN1C1CCN(Cc2ccc(-n3ccnc3)cc2)CC1`, the IC50 was 16 µM. The same compound had an IC50 under setting [1] of 16 µM. This compound also gave an IC50 under setting [2] of 13 µM.

On to `CCOc1ccc(OCC(=O)N2c3ccccc3CC2C(=O)NC)cc1` (stereo not drawn), for which the IC50 is > 50 µM (inactive). In addition, under setting [1], the IC50 was > 50 µM. Moreover, the IC50 under setting [2] was > 50 µM.

Take `Cc1ccc(C)c(-n2nnnc2Sc2nc([N+](=O)[O-])nn2C)c1`: the IC50 was > 50 µM (inactive). Under setting [1], the IC50 is > 50 µM. Under setting [2], the IC50 is > 50 µM.

Turning to `O=C1CN(C2CCCc3c(OCc4ccncc4)cccc32)C(=O)N1C1CCCCC1` (stereo not drawn), the IC50 is > 50 µM (inactive). Also, the IC50 under setting [1] is > 50 µM. Besides, the IC50 under setting [2] is > 50 µM.

Take `COc1ccccc1C(=O)Nc1nnc(-c2ccc3c(c2)OCO3)s1`: the IC50 is 1 µM. This compound also yielded an IC50 under setting [1] of 16 µM. This compound also had an IC50 under setting [2] of 0.63 µM.

For `CC(C)Nc1nccc(-c2c(-c3ccc(F)cc3)ncn2C2CCOCC2)n1`, the IC50 is 25 µM. Moreover, the IC50 under setting [1] was > 50 µM. The same compound showed an IC50 under setting [2] of 16 µM.

For `Cc1ccc(NC(=O)c2ccnc(N3CCCC3)c2)cc1-c1ccsc1C(N)=O`, the IC50 is > 50 µM (inactive). Also, the IC50 under setting [1] is > 50 µM. Also, under setting [2], the IC50 was > 50 µM.

For `O=C(Nc1nc(-c2ccccn2)cs1)N1C[C@H]2C[C@@]2(c2ccccc2)C1`, the IC50 is 0.5 µM. The compound further came in with an IC50 under setting [1] of 7.9 µM. Also, the IC50 under setting [2] was 0.4 µM.

Regarding `Cc1nc(-c2ccncc2)ncc1C(C)NC(=O)c1ccc(Cl)s1` (stereo not drawn), the IC50 is > 50 µM (inactive). In addition, the IC50 under setting [1] is > 50 µM. Under setting [2], the IC50 is > 50 µM.

Turning to `COCc1cc(Nc2ccccc2)nc(-c2ccccn2)n1`, the IC50 is 7.9 µM. Moreover, the 50% inhibitory concentration (IC50) under setting [1] was > 50 µM. The compound further displayed an IC50 under setting [2] of 5 µM.

Turning to `O=C(Nc1nc(-c2ccc(S(=O)(=O)N3CCOCC3)cc2)cs1)c1ccc([N+](=O)[O-])cc1`, the IC50 was > 50 µM (inactive). Besides, under setting [1], the IC50 was 4 µM. The IC50 under setting [2] stood at 2.5 µM.

`O=c1ccn(-c2ccc([N+](=O)[O-])cc2Cl)c2ccc(F)cc12`: the IC50 was > 50 µM (inactive). Further, the IC50 under setting [1] was > 50 µM. In addition, the IC50 under setting [2] is > 50 µM.

For the compound `CC(C)Oc1cccc(N2CCC(C(=O)N3CCCN(C(C)C)CC3)CC2)c1`, the IC50 was > 50 µM (inactive). The IC50 under setting [1] was > 50 µM. Further, the IC50 under setting [2] was > 50 µM.

Consider `COc1ccc(C)cc1-c1csc(NC(=O)C(C)n2ccnc2)n1` (stereo not drawn), for which the IC50 is > 50 µM (inactive). Moreover, under setting [1], the IC50 was > 50 µM. Also, the IC50 under setting [2] was > 50 µM.

Take `CCOc1ccccc1C(=O)Nc1nnc(-c2ccc3c(c2)OCO3)s1`: the IC50 is 0.5 µM. Further, the IC50 under setting [1] was > 50 µM. Further, under setting [2], the IC50 worked out at 0.32 µM.

For `O=C(NCCc1ccccn1)C(c1cn[nH]c1)N1CCN(c2ccc(Cl)c(Cl)c2)CC1` (stereo not drawn), the IC50 was > 50 µM (inactive). The IC50 under setting [1] was > 50 µM. Besides, the IC50 under setting [2] was 20 µM.

Turning to `Cn1nc([N+](=O)[O-])nc1Oc1ccc(C(=O)c2ccccc2)cc1`, the IC50 is > 50 µM (inactive). Moreover, under setting [1], the IC50 was > 50 µM. Moreover, the IC50 under setting [2] is > 50 µM.

For the compound `O=C1CSC(c2cccnc2)N1c1ccc(Cl)cc1Cl` (stereo not drawn), the IC50 was > 50 µM (inactive). Further, the IC50 under setting [1] is > 50 µM. The IC50 under setting [2] was > 50 µM.

As for `CN1C(=O)c2ccccc2Sc2ccc(NC(=O)NCc3ccco3)cc21`, the IC50 was > 50 µM (inactive). The IC50 under setting [1] was > 50 µM. Also, the IC50 under setting [2] was found to be 25 µM.

With `CNc1nc(C)nc(N2CCc3cc(C(=O)NCc4ccc(-c5nccn5C)cc4Cl)ccc32)n1`, the IC50 was 0.79 µM. Besides, the IC50 under setting [1] was 25 µM. For the same compound, the IC50 under setting [2] stood at 0.79 µM.

Take `CC(CNS(=O)(=O)c1ccc(OC(F)F)cc1)c1ccc(NC(=O)c2ccncc2)cc1` (stereo not drawn): the IC50 is > 50 µM (inactive). The compound also gave an IC50 under setting [1] of 16 µM. The compound also yielded an IC50 under setting [2] of 5 µM.

As for `Cc1cccnc1CN1CCN(CCCOc2ccc(-c3ccc(C(N)=O)cc3)cc2)CC1`, the IC50 is 32 µM. Besides, the IC50 under setting [1] turned out to be 13 µM. Besides, under setting [2], the IC50 is 10 µM.

Consider `CCN(CC)c1ncc(C(=O)c2ccc([N+](=O)[O-])o2)s1`, for which the IC50 is 10 µM. The compound also returned an IC50 under setting [1] of 6.3 µM. This compound also registered an IC50 under setting [2] of 10 µM.

With `CCC(=O)Nc1ccc(C(=O)Nc2ccccc2-c2ccccc2)cc1`, the IC50 is 20 µM. Also, the IC50 under setting [1] was determined as 16 µM. Under setting [2], this compound had an IC50 of 25 µM.

As for `O=C(Nc1cccc(Cl)c1)Nc1ccc([N+](=O)[O-])cc1Cl`, the IC50 was 3.2 µM. Further, under setting [1], the IC50 is 25 µM. For the same compound, the IC50 under setting [2] worked out at 2 µM.

For the compound `Cc1cccnc1NC(=O)c1cccc(OCc2c(C)noc2C)c1`, the IC50 was 20 µM. For the same compound, the IC50 under setting [1] came out at 6.3 µM. The compound further yielded an IC50 under setting [2] of 10 µM.

In the case of `CCOc1cnn(C)c(=O)c1Nc1ccc(C(=O)NCc2ccc(F)cc2)cc1`, the IC50 was > 50 µM (inactive). The compound also showed an IC50 under setting [1] of 32 µM. Moreover, the IC50 under setting [2] was > 50 µM.

As to `CNc1c(C(N)=O)c(-c2ccc3scnc3c2)nn1CC(F)(F)F`, the IC50 is > 50 µM (inactive). In addition, the IC50 under setting [1] is > 50 µM. For the same compound, the IC50 under setting [2] was > 50 µM.

For `COc1cc(Nc2nccc(Nc3onc(C)c3C)n2)cc(S(=O)(=O)C2CCOCC2)c1`, the IC50 is > 50 µM (inactive). For the same compound, under setting [1], the IC50 was 40 µM. Besides, the IC50 under setting [2] was 5 µM.

For `c1ccc(-c2nc(NC3CCCC3)c3ccccc3n2)nc1`, the IC50 is 2 µM. Under setting [1], this compound came in with an IC50 of 20 µM. Under setting [2], this compound had an IC50 of 1.3 µM.

On to `COc1ccc(NS(=O)(=O)c2cc(NC(=O)c3ccc([N+](=O)[O-])s3)ccc2OC)cc1`, for which the IC50 is 0.79 µM. The compound also yielded an IC50 under setting [1] of 13 µM. The IC50 under setting [2] amounted to 0.79 µM.

Turning to `O=C(CN1CCN(c2ccccn2)CC1)Nc1cc(S(=O)(=O)N2CCCCCC2)ccc1Cl`, the IC50 is 6.3 µM. Also, the IC50 under setting [1] stood at 50 µM. In addition, under setting [2], the IC50 worked out at 1.3 µM.

On to `Cc1cccc(NS(=O)(=O)c2ccc3c(c2)C(=O)c2cc(S(=O)(=O)Nc4cccc(C)c4C)ccc2-3)c1C`, for which the IC50 is > 50 µM (inactive). In addition, under setting [1], the IC50 was > 50 µM. Besides, the IC50 under setting [2] is > 50 µM.

As to `CCC(CC)C(=O)Nc1cccc(C(=O)Nc2nnc(C3CCCCC3)s2)c1`, the IC50 was > 50 µM (inactive). For the same compound, the IC50 under setting [1] is > 50 µM. Moreover, the IC50 under setting [2] is > 50 µM.

With `O=C(NNC(=O)c1ccccn1)c1ccc(-c2ccccc2)cc1`, the IC50 was 6.3 µM. The same compound had an IC50 under setting [1] of 3.2 µM. In addition, the IC50 under setting [2] turned out to be 3.2 µM.

For `CCN(CC)S(=O)(=O)c1ccc(C)c(NC(=O)c2cc(Cl)c3c(c2)OCO3)c1`, the IC50 is > 50 µM (inactive). Also, under setting [1], the IC50 is > 50 µM. For the same compound, the IC50 under setting [2] is > 50 µM.

Consider `O=C(C1CCCCC1)N1CCN(c2nnc(-c3ccccc3)c3ccccc23)CC1`, for which the IC50 is > 50 µM (inactive). Also, under setting [1], the IC50 was found to be 50 µM. Further, under setting [2], the IC50 stood at 20 µM.

With `COc1ccc(Oc2ccc(C(C)N(C)c3ncc4c(N)nc(N)nc4n3)cc2)cc1` (stereo not drawn), the IC50 is 0.1 µM. Also, the IC50 under setting [1] was 16 µM. The compound also returned an IC50 under setting [2] of 0.05 µM.

Take `Cc1cc2ncn(-c3ccc([N+](=O)[O-])cc3C#N)c2cc1C`: the IC50 was > 50 µM (inactive). The IC50 under setting [1] was > 50 µM. Also, under setting [2], the IC50 is > 50 µM.

On to `CCN(CC)c1ccc(S(=O)(=O)N(CC)CC)c2nonc12`, for which the IC50 is 0.4 µM. Moreover, the IC50 under setting [1] stood at 16 µM. The same compound registered a half-inhibitory concentration (IC50) under setting [2] of 0.13 µM.

In the case of `O=[N+]([O-])c1cccc(Nc2cncc(-c3ccccc3CO)c2)c1`, the IC50 is > 50 µM (inactive). Further, the IC50 under setting [1] is > 50 µM. Also, the half-maximal inhibitory concentration (IC50) under setting [2] was > 50 µM.

For `O=C(c1cnn(-c2ccccc2)n1)N1CCCC(n2ccnc2)C1` (stereo not drawn), the IC50 is > 50 µM (inactive). For the same compound, the IC50 under setting [1] was > 50 µM. This compound also gave an IC50 under setting [2] of 0.63 µM.

On to `O=C(CN1CCN(S(=O)(=O)c2cccc([N+](=O)[O-])c2)CC1)Nc1ccc(Oc2ccccc2)cc1`, for which the IC50 is 7.9 µM. In addition, the IC50 under setting [1] is > 50 µM. Besides, under setting [2], the IC50 turned out to be 2 µM.

Take `O=C(Nc1cccc(F)c1)N1CCC(Oc2cccc(-c3cccnc3)c2)CC1`: the IC50 is > 50 µM (inactive). The IC50 under setting [1] stood at 20 µM. For the same compound, the IC50 under setting [2] is 0.79 µM.

With `Fc1ccccc1N1C[C@H]2CCN(c3cccnc3)C[C@H]2C1`, the IC50 is > 50 µM (inactive). Moreover, the IC50 under setting [1] is > 50 µM.

With `Nc1nc(-c2ccccn2)nc(N)c1Cc1c(F)cccc1Cl`, the IC50 was 1.3 µM. Moreover, the IC50 under setting [1] was found to be 32 µM. This compound also displayed an IC50 under setting [2] of 1 µM.

`CS(=O)(=O)c1cccc(CNC(=O)c2cncc(N3CCN(c4ccc(F)cc4)CC3)c2)c1`: the IC50 was > 50 µM (inactive). In addition, the IC50 under setting [1] is > 50 µM. The IC50 under setting [2] was > 50 µM.

In the case of `O=C(Nc1cccc(Cl)c1)N1CCCCC1c1cccnc1` (stereo not drawn), the IC50 was > 50 µM (inactive). For the same compound, under setting [1], the IC50 was > 50 µM. In addition, under setting [2], the IC50 was > 50 µM.

On to `O=C(CSc1nnc2ccc(-c3ccc(F)cc3)nn12)N1CCCCC1`, for which the IC50 was > 50 µM (inactive). The IC50 under setting [1] was 6.3 µM. Also, the IC50 under setting [2] is > 50 µM.

In the case of `Cc1[nH]n2c(=O)c3c(nc2c1-c1ccc(Br)cc1)CCCC3`, the IC50 is > 50 µM (inactive). Moreover, under setting [1], the IC50 is > 50 µM. Further, the IC50 under setting [2] turned out to be 40 µM.

A word on the IC50: it is the concentration that inhibits the measured activity by half.
